Reference: ChEMBL document CHEMBL5506069, “A Unique Hybridization Route to Access Hydrazylnaphthalimidols as Novel Structural Scaffolds of Multitargeting Broad-Spectrum Antifungal Candidates” (J Med Chem, 2024)
≈ marks a conversion by molar mass, not a printed value.

What was measured:
Format in all cases: functional
Candida albicans [1] = test: Antifungal activity against Candida albicans assessed as inhibition of fungal growth incubated for 24 hrs by CLSI based microbroth dilution method
Candida albicans [2] = test: Antifungal activity against Candida albicans ATCC 90023 assessed as inhibition of fungal growth incubated for 24 hrs by CLSI based microbroth dilution method
Aspergillus fumigatus = test: Antifungal activity against Aspergillus fumigatus assessed as inhibition of fungal growth incubated for 24 hrs by CLSI based microbroth dilution method
Candida tropicalis = test: Antifungal activity against Candida tropicalis assessed as inhibition of fungal growth incubated for 24 hrs by CLSI based microbroth dilution method
Candida parapsilosis = test: Antifungal activity against Candida parapsilosis ATCC 22019 assessed as inhibition of fungal growth incubated for 24 hrs by CLSI based microbroth dilution method; conditions: Lodderomyces parapsilosis

Compound | MIC (Candida albicans [1]) [µM] | MIC (Candida albicans [2]) [µM] | MIC (Aspergillus fumigatus) [µM] | MIC (Candida tropicalis) [µM] | MIC (Candida parapsilosis) [µM]
O=C1c2cccc3c(N/N=C/c4cc[nH]c4)ccc(c23)C(=O)N1CCO | 367 (≈ 128 µg/mL) | 367 (≈ 128 µg/mL) | 92 (≈ 32 µg/mL) | 23 (≈ 8.01 µg/mL) | 46 (≈ 16 µg/mL)
CCCCCCCCN1C(=O)c2cccc3c(N/N=C(\C)Cn4c([N+](=O)[O-])cnc4C)ccc(c23)C1=O | 1020 (≈ 512 µg/mL) | 1020 (≈ 512 µg/mL) | 1020 (≈ 512 µg/mL) | 1020 (≈ 512 µg/mL) | 1020 (≈ 512 µg/mL)
C/C(Cn1c([N+](=O)[O-])cnc1C)=N\Nc1ccc2c3c(cccc13)C(=O)N(c1ccc(C(F)(F)F)cc1Cl)C2=O | 477 (≈ 272 µg/mL) | 954 (≈ 545 µg/mL) | 477 (≈ 272 µg/mL) | 477 (≈ 272 µg/mL) | 239 (≈ 136 µg/mL)
C=CCN1C(=O)c2cccc3c(N/N=C(\C)Cn4c([N+](=O)[O-])cnc4C)ccc(c23)C1=O | 1190 (≈ 515 µg/mL) | 1190 (≈ 515 µg/mL) | 595 (≈ 257 µg/mL) | 1190 (≈ 515 µg/mL) | 1190 (≈ 515 µg/mL)
O=C1c2cccc3c(N/N=C/c4nccs4)ccc(c23)C(=O)N1CCO | 699 (≈ 256 µg/mL) | 350 (≈ 128 µg/mL) | 350 (≈ 128 µg/mL) | 175 (≈ 64.1 µg/mL) | 175 (≈ 64.1 µg/mL)
CCN1C(=O)c2cccc3c(N/N=C(\C)Cn4c([N+](=O)[O-])cnc4C)ccc(c23)C1=O | 1220 (≈ 512 µg/mL) | 1220 (≈ 512 µg/mL) | 1220 (≈ 512 µg/mL) | 1220 (≈ 512 µg/mL) | 1220 (≈ 512 µg/mL)
O=C1c2cccc3c(N/N=C/c4cc(Cl)ccc4O)ccc(c23)C(=O)N1CCO | 626 (≈ 257 µg/mL) | 313 (≈ 128 µg/mL) | 313 (≈ 128 µg/mL) | 313 (≈ 128 µg/mL) | 626 (≈ 257 µg/mL)
C/C(Cn1c([N+](=O)[O-])cnc1C)=N\Nc1ccc2c3c(cccc13)C(=O)N(Cc1ccc(F)cc1)C2=O | 1020 (≈ 512 µg/mL) | 1020 (≈ 512 µg/mL) | 1020 (≈ 512 µg/mL) | 1020 (≈ 512 µg/mL) | 1020 (≈ 512 µg/mL)
C/C(Cn1c([N+](=O)[O-])cnc1C)=N\Nc1ccc2c3c(cccc13)C(=O)N(c1ccc(F)c(Cl)c1)C2=O | 491 (≈ 256 µg/mL) | 983 (≈ 512 µg/mL) | 983 (≈ 512 µg/mL) | 246 (≈ 128 µg/mL) | 246 (≈ 128 µg/mL)

These reach a lower MIC (Candida albicans [1]). Values come first.

MIC (Candida albicans [1]) [µM] | MIC (Candida albicans [2]) [µM] | MIC (Aspergillus fumigatus) [µM] | MIC (Candida tropicalis) [µM] | MIC (Candida parapsilosis) [µM] | Compound
355 (≈ 128 µg/mL) | 355 (≈ 128 µg/mL) | 355 (≈ 128 µg/mL) | 711 (≈ 256 µg/mL) | 711 (≈ 256 µg/mL) | O=C1c2cccc3c(N/N=C/c4ccccn4)ccc(c23)C(=O)N1CCO
120 (≈ 64.3 µg/mL) | 7 (≈ 3.75 µg/mL) | 2 (≈ 1.07 µg/mL) | 15 (≈ 8.04 µg/mL) | 60 (≈ 32.2 µg/mL) | CCCCc1nc(Cl)c(/C=N/Nc2ccc3c4c(cccc24)C(=O)N(CCO)C3=O)n1CC1CCCCC1
57 (≈ 32.2 µg/mL) | 7 (≈ 3.95 µg/mL) | 57 (≈ 32.2 µg/mL) | 28 (≈ 15.8 µg/mL) | 57 (≈ 32.2 µg/mL) | CCCCc1nc(Cl)c(/C=N/Nc2ccc3c4c(cccc24)C(=O)N(CCO)C3=O)n1Cc1ccc(Cl)cc1
71 (≈ 32.2 µg/mL) | 71 (≈ 32.2 µg/mL) | 18 (≈ 8.17 µg/mL) | 141 (≈ 64 µg/mL) | 565 (≈ 256 µg/mL) | CCCCc1nc(Cl)c(/C=N/Nc2ccc3c4c(cccc24)C(=O)N(CCO)C3=O)n1C
58 (≈ 31.8 µg/mL) | 15 (≈ 8.22 µg/mL) | 58 (≈ 31.8 µg/mL) | 15 (≈ 8.22 µg/mL) | 15 (≈ 8.22 µg/mL) | CCCCc1nc(Cl)c(/C=N/Nc2ccc3c4c(cccc24)C(=O)N(CCO)C3=O)n1Cc1ccccc1F
54 (≈ 32.3 µg/mL) | 3 (≈ 1.8 µg/mL) | 214 (≈ 128 µg/mL) | 54 (≈ 32.3 µg/mL) | 13 (≈ 7.79 µg/mL) | CCCCc1nc(Cl)c(/C=N/Nc2ccc3c4c(cccc24)C(=O)N(CCO)C3=O)n1Cc1ccc(Cl)cc1Cl
111 (≈ 63.8 µg/mL) | 7 (≈ 4.03 µg/mL) | 111 (≈ 63.8 µg/mL) | 28 (≈ 16.1 µg/mL) | 14 (≈ 8.05 µg/mL) | CCCCc1nc(Cl)c(/C=N/Nc2ccc3c4c(cccc24)C(=O)N(CCO)C3=O)n1Cc1ccc([N+](=O)[O-])cc1
87 (≈ 30.4 µg/mL) | 175 (≈ 61.1 µg/mL) | 87 (≈ 30.4 µg/mL) | 87 (≈ 30.4 µg/mL) | 351 (≈ 123 µg/mL) | O=C1c2cccc3c(N/N=C/c4ccco4)ccc(c23)C(=O)N1CCO
150 (≈ 64.2 µg/mL) | 300 (≈ 128 µg/mL) | 300 (≈ 128 µg/mL) | 150 (≈ 64.2 µg/mL) | 599 (≈ 257 µg/mL) | O=C1c2cccc3c(N/N=C/c4c(Cl)cccc4Cl)ccc(c23)C(=O)N1CCO
327 (≈ 128 µg/mL) | 655 (≈ 256 µg/mL) | 327 (≈ 128 µg/mL) | 655 (≈ 256 µg/mL) | 327 (≈ 128 µg/mL) | O=C1c2cccc3c(N/N=C/c4ccc(O)cc4O)ccc(c23)C(=O)N1CCO
33 (≈ 16 µg/mL) | 17 (≈ 8.23 µg/mL) | 66 (≈ 31.9 µg/mL) | 17 (≈ 8.23 µg/mL) | 33 (≈ 16 µg/mL) | CCCCc1nc(Cl)c(/C=N/Nc2ccc3c4c(cccc24)C(=O)N(CCO)C3=O)n1CCO
39 (≈ 16 µg/mL) | 78 (≈ 32 µg/mL) | 19 (≈ 7.8 µg/mL) | 156 (≈ 64 µg/mL) | 78 (≈ 32 µg/mL) | O=C1c2cccc3c(N/N=C/c4ccc([N+](=O)[O-])s4)ccc(c23)C(=O)N1CCO
117 (≈ 64.1 µg/mL) | 7 (≈ 3.84 µg/mL) | 58 (≈ 31.8 µg/mL) | 58 (≈ 31.8 µg/mL) | 29 (≈ 15.9 µg/mL) | CCCCc1nc(Cl)c(/C=N/Nc2ccc3c4c(cccc24)C(=O)N(CCO)C3=O)n1Cc1cccc(F)c1
21 (≈ 7.67 µg/mL) | 5 (≈ 1.83 µg/mL) | 10 (≈ 3.65 µg/mL) | 5 (≈ 1.83 µg/mL) | 21 (≈ 7.67 µg/mL) | NN1C(=O)c2cccc3c(N/N=C/c4ccc([N+](=O)[O-])o4)ccc(c23)C1=O
